Results: ChEMBL document CHEMBL1201862, “PubChem BioAssay data set” (2004)
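Step 1: Grow cells in 96-well plates. Step 2: Expose to compound for 48 hours at 5 concentrations. Step 3: Interpolate endpoints linearly; if unreached, use highest concentration. Here, GI50 denotes the concentration required for 50% inhibition of growth.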 Calls of active or inactive are those of the source. No stated cut-off is given here; in the data, active = GI50 up to about 1.1 µM and inactive = higher.

What was measured:
Experiment in all cases: DTP human tumour cell line panel, 48 h
786-0 = tested on: 786-0
A498 = tested on: A498
KM12 = tested on: KM12
OVCAR-3 = tested on: OVCAR-3
SF-268 = tested on: SF-268
SF-295 = tested on: SF-295
SK-MEL-28 = tested on: SK-MEL-28
SK-MEL-5 = tested on: SK-MEL-5
SK-OV-3 = tested on: SK-OV-3
SN12C = tested on: SN12C
SW-620 = tested on: SW-620
TK-10 = tested on: TK-10
U-251 = tested on: U-251
UACC-62 = tested on: UACC-62

Measured: GI50

N#C/C(=C\c1ccc(O)c(O)c1)c1c(C#N)c(N)nn1-c1ccccc1
inactive: 786-0 7.67 µM | A498 2.76 µM | KM12 15.6 µM | OVCAR-3 2.04 µM | SF-268 7.38 µM | SF-295 15.7 µM | SK-MEL-28 20 µM | SK-MEL-5 6.58 µM | SK-OV-3 12.9 µM | SN12C 10.3 µM | SW-620 12.8 µM | TK-10 21.8 µM | U-251 5.36 µM | UACC-62 3.81 µM

Cc1ccc(NC(=O)CCc2nc(N)nc(N)c2-c2ccccc2)cc1C
inactive: 786-0 > 100 µM | A498 > 100 µM | KM12 > 100 µM | OVCAR-3 > 100 µM | SF-268 > 100 µM | SF-295 > 100 µM | SK-MEL-28 > 100 µM | SK-MEL-5 > 100 µM | SK-OV-3 > 100 µM | SN12C > 100 µM | SW-620 > 100 µM | TK-10 > 100 µM | U-251 > 100 µM | UACC-62 > 100 µM

O=C(Nc1c(O)[nH]c(=S)[nH]c1=O)c1ccco1
inactive: 786-0 > 100 µM | A498 > 100 µM | KM12 > 100 µM | OVCAR-3 > 100 µM | SF-268 > 100 µM | SF-295 > 100 µM | SK-MEL-28 > 100 µM | SK-MEL-5 > 100 µM | SK-OV-3 > 100 µM | SN12C > 100 µM | SW-620 > 100 µM | TK-10 > 100 µM | U-251 > 100 µM | UACC-62 > 100 µM

CCOC(=N)/C(=C1\OC(=N)C(c2ccc(Cl)cc2)=C1O)c1ccc(Cl)cc1
inactive: 786-0 17.8 µM | A498 17.8 µM | KM12 18.4 µM | OVCAR-3 18 µM | SF-268 14.5 µM | SF-295 25.3 µM | SK-MEL-28 16 µM | SK-OV-3 36.5 µM | SN12C 14.8 µM | SW-620 17.6 µM | TK-10 28.1 µM | U-251 16.8 µM | UACC-62 15.5 µM

Cc1ccc(S(=O)(=O)OCC23CCC(C2)C2CC23)cc1 (stereo unspecified)
inactive: 786-0 > 100 µM | A498 > 100 µM | OVCAR-3 > 100 µM | SF-268 > 100 µM | SF-295 > 100 µM | SK-MEL-28 > 100 µM | SK-MEL-5 > 100 µM | SK-OV-3 > 100 µM | SN12C > 100 µM | SW-620 > 100 µM | TK-10 > 100 µM | U-251 > 100 µM | UACC-62 > 100 µM

C=C(Br)C(C)(Cl)CCC(Br)C(C)(C)Br (stereo unspecified)
inactive: 786-0 > 100 µM | KM12 99.1 µM | SF-295 47.2 µM | SK-MEL-5 65.3 µM | SK-OV-3 > 100 µM | SN12C > 100 µM | SW-620 79.8 µM | TK-10 > 100 µM | U-251 88.9 µM | UACC-62 47.6 µM

CC12O[C@H](c3ccccc3)[C@H](c3ccccc3)N1C(=O)C1(C(=O)OCc3ccccc3)CC12 (stereo partly specified)
inactive: 786-0 > 100 µM | A498 > 100 µM | KM12 91 µM | OVCAR-3 > 100 µM | SF-268 > 100 µM | SF-295 > 100 µM | SK-MEL-5 88.7 µM | SK-OV-3 > 100 µM | SN12C > 100 µM | SW-620 > 100 µM | UACC-62 > 100 µM

Nc1ncnc2c1ncn2[C@]1(CO)C=C(CO)C(O)C1O (stereo partly specified)
inactive: 786-0 > 100 µM | A498 > 100 µM | KM12 > 100 µM | SF-268 > 100 µM | SF-295 > 100 µM | SK-MEL-28 > 100 µM | SK-MEL-5 > 100 µM | SK-OV-3 > 100 µM | SN12C > 100 µM | SW-620 > 100 µM | TK-10 > 100 µM | U-251 > 100 µM

O/N=C1/CCC/C1=C\c1ccccc1
inactive: 786-0 > 100 µM | KM12 > 100 µM | OVCAR-3 > 100 µM | SF-268 > 100 µM | SF-295 > 100 µM | SK-MEL-28 > 100 µM | SK-MEL-5 > 100 µM | SK-OV-3 > 100 µM | SN12C > 100 µM | SW-620 > 100 µM | TK-10 > 100 µM | U-251 > 100 µM | UACC-62 > 100 µM

COc1cc(C(C)O)c[n+](CCC2CNc3ccccc32)c1 (stereo unspecified)
inactive: 786-0 > 100 µM | A498 > 100 µM | KM12 > 100 µM | OVCAR-3 26.1 µM | SF-268 27 µM | SF-295 > 100 µM | SK-MEL-5 > 100 µM | SN12C > 100 µM | SW-620 > 100 µM | U-251 > 100 µM | UACC-62 > 100 µM

CC(C)COC1Sc2ccccc2S1
inactive: 786-0 22.3 µM | OVCAR-3 19.6 µM | SF-268 23.1 µM | SF-295 16.4 µM | SK-MEL-28 17.4 µM | SK-OV-3 28.1 µM | SN12C 18.8 µM | SW-620 29.7 µM | TK-10 21.5 µM | U-251 18.7 µM | UACC-62 4.91 µM
